# The source made the active and inactive calls.
# Key:
# HEK293 [1] = assay: inhibition of NOD1-driven NF-kB reporter – cell-based, luminescence, uHTS, primary screen (AID 1578); assay type: functional; details: Homo sapiens
# [2] = target: Nucleotide-binding oligomerization domain-containing protein 2 (Homo sapiens, UniProt Q9HC29); assay: inhibition of NOD2-driven NF-kB reporter – cell-based, luminescence, uHTS, HEK293 (AID 1566); assay type: functional
# HEK293 [3] = assay: NOD2 signaling inhibitors in MDP-stimulated cells, cell-based, uHTS, luminescence (AID 2001); assay type: functional; details: Homo sapiens
# HEK293 [4] = assay: cells; assay type: functional, cell-based; details: Homo sapiens
# [5] = Luminescence Cell-Based Dose Retest to Confirm Inhibitors of Cancer Stem Cells. [Related pubchem assays (depositor defined):AID2717, AID2721]; assay type: functional; details: Homo sapiens
# Beta-galactosidase = Beta-galactosidase (Escherichia coli, UniProt Q8VNN2); assay: detection-enzyme interference by beta-gal modulators – biochemical, E. coli enzyme, set 3, artefact control for CCR6 antagonist project, dose response (AID 504712); assay type: functional
# CHO = CHO cell viability loss, potency – luminescence, cytotoxicity control for TLR9-MyD88 binding inhibitor project, dose response (AID 588339); assay type: functional, cell-based, hamster; details: Cricetulus griseus;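 note: CHO cells stably coexpressing TLR9 and MyD88 fusions from primary screen; compound exposure lasted 48 hours before viability readout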
# [6] = target: T1, Replicative DNA helicase DnaB (Mycobacterium tuberculosis, UniProt P9WMR3); assay: DnaB intein splicing inhibitors, dose response, biochemical, cell-free fluorescence (AID 449749); assay type: functional
# T1 sequence (P9WMR3 whole entry): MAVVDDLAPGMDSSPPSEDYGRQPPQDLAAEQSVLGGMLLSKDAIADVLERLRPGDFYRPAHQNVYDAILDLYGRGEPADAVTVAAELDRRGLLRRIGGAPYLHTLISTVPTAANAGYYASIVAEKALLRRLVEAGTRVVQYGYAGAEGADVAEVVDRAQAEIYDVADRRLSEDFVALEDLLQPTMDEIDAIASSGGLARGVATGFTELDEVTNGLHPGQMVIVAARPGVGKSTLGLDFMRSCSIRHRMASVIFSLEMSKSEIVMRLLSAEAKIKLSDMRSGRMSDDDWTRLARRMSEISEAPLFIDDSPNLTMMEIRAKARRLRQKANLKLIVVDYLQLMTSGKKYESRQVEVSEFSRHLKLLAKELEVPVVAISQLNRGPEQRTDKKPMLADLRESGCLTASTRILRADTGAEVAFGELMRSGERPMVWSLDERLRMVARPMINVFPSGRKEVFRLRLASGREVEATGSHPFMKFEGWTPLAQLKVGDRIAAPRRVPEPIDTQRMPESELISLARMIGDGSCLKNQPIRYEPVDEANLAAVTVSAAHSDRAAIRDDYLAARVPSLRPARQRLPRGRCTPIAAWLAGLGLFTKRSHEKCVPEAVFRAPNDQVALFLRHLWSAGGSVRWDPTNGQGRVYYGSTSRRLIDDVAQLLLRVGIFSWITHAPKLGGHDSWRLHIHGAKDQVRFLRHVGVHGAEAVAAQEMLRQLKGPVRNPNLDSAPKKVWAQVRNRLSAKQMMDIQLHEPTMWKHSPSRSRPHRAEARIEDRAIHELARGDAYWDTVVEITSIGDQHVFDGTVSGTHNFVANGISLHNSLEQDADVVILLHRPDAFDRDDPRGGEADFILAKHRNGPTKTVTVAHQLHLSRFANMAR
# [7] = target: Heat shock protein HSP 90-alpha (Homo sapiens, UniProt P07900); assay type: functional, organism-based
# Apelin receptor = Apelin receptor (Homo sapiens, UniProt P35414); assay: apelin receptor antagonists, arrestin read-out – cell-based, luminescent, enzyme-fragment complementation, selectivity assay for CCR6 antagonist project, SAR follow-up (AID 588359); assay type: functional
# Protein RecA = target: T2, Protein RecA (Mycobacterium tuberculosis, UniProt P9WHJ3); assay: Fluorescence Cell-Free Homogeneous Dose Retest to Identify Inhibitors of RecA-Intein Splicing Activity. [Related pubchem assays (depositor defined):AID2097, AID2223, AID489010, AID492950]; assay type: functional
# T2 sequence (P9WHJ3 whole entry): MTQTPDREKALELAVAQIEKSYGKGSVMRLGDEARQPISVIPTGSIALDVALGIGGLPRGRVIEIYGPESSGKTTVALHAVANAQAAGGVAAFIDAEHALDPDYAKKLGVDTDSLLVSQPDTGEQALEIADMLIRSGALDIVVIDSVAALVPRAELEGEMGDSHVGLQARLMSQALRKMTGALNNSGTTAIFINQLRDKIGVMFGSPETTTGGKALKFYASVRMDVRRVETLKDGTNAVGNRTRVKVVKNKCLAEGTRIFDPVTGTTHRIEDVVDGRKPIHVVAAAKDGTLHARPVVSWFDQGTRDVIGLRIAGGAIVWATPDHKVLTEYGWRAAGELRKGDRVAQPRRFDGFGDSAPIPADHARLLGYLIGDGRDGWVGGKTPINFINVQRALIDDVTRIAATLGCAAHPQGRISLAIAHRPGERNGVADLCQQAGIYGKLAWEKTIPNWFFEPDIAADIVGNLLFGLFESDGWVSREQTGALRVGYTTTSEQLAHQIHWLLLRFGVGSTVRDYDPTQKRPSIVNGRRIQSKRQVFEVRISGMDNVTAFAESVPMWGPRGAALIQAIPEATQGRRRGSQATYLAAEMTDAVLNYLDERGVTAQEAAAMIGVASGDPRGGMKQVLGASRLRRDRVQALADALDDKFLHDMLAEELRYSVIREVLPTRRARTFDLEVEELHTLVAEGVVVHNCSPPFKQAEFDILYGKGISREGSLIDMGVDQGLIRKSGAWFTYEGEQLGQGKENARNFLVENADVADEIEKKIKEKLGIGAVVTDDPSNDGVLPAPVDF
# Beta Lactamase [8] = target: T3, Beta Lactamase (Pseudomonas aeruginosa, UniProt Q932Y6); assay: BLA reporter interference, concentration series – BLA reporter cells, FRET fluorescence, artefact control for TLR9-MyD88 binding inhibitor project, dose response (AID 588341); assay type: cell-based;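 note: cell based assay in CHO-K1 cells stably expressing beta-lactamase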
# [9] = reduction of Shn3 3'UTR-driven luciferase in osteoblasts – cell-based, Clone20 osteoblasts, firefly luciferase, cherry-picked, dose response (AID 624132); assay type: functional;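 note: firefly luciferase luminescence from reporter carrying the Shn3 3'UTR in osteoblasts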
# [10] = loss of viability in HepG2 cells – cell-based, CellTiter-Glo, cherry-picked, cytotoxicity control for Shn3 inhibitor project, dose response (AID 624134); assay type: functional
# [11] = non-specific 3'UTR reporter inhibition in Clone20-Shn3RL – cell-based, Renilla luciferase, cherry-picked, counter-screen for Shn3 inhibitor project, dose response (AID 624133); assay type: functional
# [12] = target: ATP-binding cassette sub-family B member 6 (Homo sapiens, UniProt Q9NP58); assay: ABCB6 transporter inhibitors, porphyrin accumulation, dose response, flow cytometry, K562-ABCB6 cells, cherry pick 02 (AID 624487); assay type: functional; details: read-out: EC50_MICROM
# [13] = target: ATP-dependent translocase ABCB1 (Homo sapiens, UniProt P08183); assay: inhibition of P-gp mediated JC-1 efflux – Jurkat-DNR cells, flow cytometry, dose response (AID 1689); assay type: functional
# [14] = target: Broad substrate specificity ATP-binding cassette transporter ABCG2 (Homo sapiens, UniProt Q9UNQ0); assay: blockers of JC-1 export by ABCG2 – Ig-MXP3 cells, flow cytometry, dose response (AID 1690); assay type: functional
# Beta Lactamase [15] = target: T3, Beta Lactamase
# [16] = tested on: Streptococcus sp. 'group A'; assay: Streptococcus pyogenes SK(-)GAS viability under kanamycin – luminescence, BacTiterGlo, confirmation, counter-screen for streptokinase expression inhibitor project, dose response (AID 1900); assay type: functional, organism-based
# Streptokinase A = target: T4, Streptokinase A (Streptococcus pyogenes serotype M1, UniProt P10520); assay: viability-normalized secreted streptokinase activity reduction – plasminogen activation absorbance, OD405, dose response (AID 1914); assay type: functional, Streptococcus pyogenes M1 GAS;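 note: secreted streptokinase activity via plasminogen activation per viability signal from cell pellet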
# T4 sequence (P10520 whole entry): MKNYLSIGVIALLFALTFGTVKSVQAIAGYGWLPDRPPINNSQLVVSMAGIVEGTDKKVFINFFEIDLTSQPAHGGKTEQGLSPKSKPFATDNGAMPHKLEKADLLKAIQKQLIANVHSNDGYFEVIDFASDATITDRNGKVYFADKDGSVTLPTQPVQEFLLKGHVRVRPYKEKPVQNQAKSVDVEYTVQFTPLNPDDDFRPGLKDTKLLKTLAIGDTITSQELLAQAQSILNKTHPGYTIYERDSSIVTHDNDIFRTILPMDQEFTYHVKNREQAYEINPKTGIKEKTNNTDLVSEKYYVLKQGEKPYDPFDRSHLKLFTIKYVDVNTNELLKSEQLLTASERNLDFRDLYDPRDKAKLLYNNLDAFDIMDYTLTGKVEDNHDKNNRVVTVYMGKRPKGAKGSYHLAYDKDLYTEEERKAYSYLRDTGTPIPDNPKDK
# Beta-lactamase [17] = target: Beta-lactamase (Pseudomonas aeruginosa, UniProt Q79MP6);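 note: biochemical dose-response test of metallo-beta-lactamase enzyme inhibition, read out by epi-absorbance; purified recombinant IMP-1 metallo-beta-lactamase with nitrocefin as substrate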
# Beta-lactamase [18] = target: Beta-lactamase (Salmonella choleraesuis (strain SC-B67), UniProt Q5J463)
# Streptococcus = assay: GAS UMAA2166 growth inhibition – luminescence, BacTiterGlo, counter-screen for streptokinase expression inhibitor project, dose response (AID 1915); assay type: functional, organism-based;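 note: potency for reduction of bacterial viability or growth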
# [19] = target: Voltage-dependent T-type calcium channel subunit alpha-1H (Homo sapiens, UniProt O95180); assay type: functional;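 note: channel activity triggered by adding a high calcium stimulation buffer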
# ORF 73 = target: T5, ORF 73 (Human herpesvirus 8, UniProt O40947); assay: KSHV LANA DNA-binding disruption – biochemical, fluorescence polarization, cherry-picked samples, dose response (AID 504725); set-up: species or system Human gammaherpesvirus 8;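 note: fluorescence polarization of a labeled DNA duplex reporting LANA DNA binding; potency is for inhibitors that block LANA binding to the DNA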
# T5 sequence (O40947 whole entry): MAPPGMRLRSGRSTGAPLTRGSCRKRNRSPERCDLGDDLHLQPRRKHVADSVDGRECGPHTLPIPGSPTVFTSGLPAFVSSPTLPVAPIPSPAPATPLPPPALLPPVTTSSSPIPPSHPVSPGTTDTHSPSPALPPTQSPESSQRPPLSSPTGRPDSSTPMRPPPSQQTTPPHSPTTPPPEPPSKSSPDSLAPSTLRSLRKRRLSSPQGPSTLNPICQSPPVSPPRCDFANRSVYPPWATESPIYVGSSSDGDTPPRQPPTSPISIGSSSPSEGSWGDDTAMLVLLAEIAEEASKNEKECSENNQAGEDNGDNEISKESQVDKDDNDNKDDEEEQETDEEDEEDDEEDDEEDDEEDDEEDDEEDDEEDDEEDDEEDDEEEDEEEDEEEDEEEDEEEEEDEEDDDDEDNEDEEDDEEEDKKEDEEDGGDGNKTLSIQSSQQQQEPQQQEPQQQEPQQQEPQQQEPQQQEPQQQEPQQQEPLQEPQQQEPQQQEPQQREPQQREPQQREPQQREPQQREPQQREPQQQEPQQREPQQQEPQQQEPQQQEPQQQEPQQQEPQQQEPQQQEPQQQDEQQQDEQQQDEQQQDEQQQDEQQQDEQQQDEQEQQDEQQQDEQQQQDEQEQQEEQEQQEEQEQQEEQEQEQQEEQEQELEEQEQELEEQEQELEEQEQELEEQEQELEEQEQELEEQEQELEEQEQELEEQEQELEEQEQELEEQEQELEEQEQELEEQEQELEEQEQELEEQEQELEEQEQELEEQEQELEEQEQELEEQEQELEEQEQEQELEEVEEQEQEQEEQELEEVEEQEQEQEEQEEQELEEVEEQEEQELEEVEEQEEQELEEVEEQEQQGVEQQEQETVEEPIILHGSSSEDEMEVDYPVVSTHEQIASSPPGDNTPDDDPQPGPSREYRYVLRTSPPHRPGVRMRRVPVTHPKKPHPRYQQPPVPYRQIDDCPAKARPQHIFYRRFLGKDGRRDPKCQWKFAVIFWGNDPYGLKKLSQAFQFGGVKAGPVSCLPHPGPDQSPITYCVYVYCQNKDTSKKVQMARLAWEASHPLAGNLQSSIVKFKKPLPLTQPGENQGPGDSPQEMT
# [20] = target: UDP-galactopyranose mutase (Mycobacterium tuberculosis, UniProt P9WIQ1); assay: Inhibitors of Mycobacterium tuberculosis UDP-galactopyranose mutase (UGM) enzyme Measured in Biochemical System Using Plate Reader - 2105-02_Inhibitor_Dose_CherryPick_Activity. [Related pubchem assays (depositor defined):AID504439]
# [21] = target: T6, Beta-2 adrenergic receptor (Homo sapiens, UniProt P07550); assay: Dose response for HTS for Beta-2AR agonists via FAP method from Powderset1.; assay type: functional
# [22] = target: T6, Beta-2 adrenergic receptor; assay: ADRB2 activation measured by internalization – cell-based, FAP fluorogen, flow cytometry, cherry pick 1, dose response (AID 588763); assay type: functional
# T3 sequence (Q932Y6 whole entry): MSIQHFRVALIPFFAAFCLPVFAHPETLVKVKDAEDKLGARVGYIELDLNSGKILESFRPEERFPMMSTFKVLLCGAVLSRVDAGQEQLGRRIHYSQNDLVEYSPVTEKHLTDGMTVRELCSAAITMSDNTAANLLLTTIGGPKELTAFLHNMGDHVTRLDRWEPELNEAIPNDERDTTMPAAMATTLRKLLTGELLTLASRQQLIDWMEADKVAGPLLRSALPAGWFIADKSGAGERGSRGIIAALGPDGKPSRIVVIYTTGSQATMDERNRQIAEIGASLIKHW
# T6 sequence (P07550 whole entry): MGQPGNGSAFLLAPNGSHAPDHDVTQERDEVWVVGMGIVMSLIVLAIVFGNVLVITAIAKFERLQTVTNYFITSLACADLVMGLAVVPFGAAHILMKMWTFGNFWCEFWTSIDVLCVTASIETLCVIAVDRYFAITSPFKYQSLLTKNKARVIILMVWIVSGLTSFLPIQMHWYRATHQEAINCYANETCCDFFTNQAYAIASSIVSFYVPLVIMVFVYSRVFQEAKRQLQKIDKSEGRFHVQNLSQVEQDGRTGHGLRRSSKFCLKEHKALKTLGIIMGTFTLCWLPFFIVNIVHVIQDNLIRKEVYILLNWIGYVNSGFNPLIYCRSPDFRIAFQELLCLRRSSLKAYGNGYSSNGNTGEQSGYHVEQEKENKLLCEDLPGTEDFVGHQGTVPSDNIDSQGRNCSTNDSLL
# Chain of ATP-dependent translocase ABCB1 (P08183 whole entry): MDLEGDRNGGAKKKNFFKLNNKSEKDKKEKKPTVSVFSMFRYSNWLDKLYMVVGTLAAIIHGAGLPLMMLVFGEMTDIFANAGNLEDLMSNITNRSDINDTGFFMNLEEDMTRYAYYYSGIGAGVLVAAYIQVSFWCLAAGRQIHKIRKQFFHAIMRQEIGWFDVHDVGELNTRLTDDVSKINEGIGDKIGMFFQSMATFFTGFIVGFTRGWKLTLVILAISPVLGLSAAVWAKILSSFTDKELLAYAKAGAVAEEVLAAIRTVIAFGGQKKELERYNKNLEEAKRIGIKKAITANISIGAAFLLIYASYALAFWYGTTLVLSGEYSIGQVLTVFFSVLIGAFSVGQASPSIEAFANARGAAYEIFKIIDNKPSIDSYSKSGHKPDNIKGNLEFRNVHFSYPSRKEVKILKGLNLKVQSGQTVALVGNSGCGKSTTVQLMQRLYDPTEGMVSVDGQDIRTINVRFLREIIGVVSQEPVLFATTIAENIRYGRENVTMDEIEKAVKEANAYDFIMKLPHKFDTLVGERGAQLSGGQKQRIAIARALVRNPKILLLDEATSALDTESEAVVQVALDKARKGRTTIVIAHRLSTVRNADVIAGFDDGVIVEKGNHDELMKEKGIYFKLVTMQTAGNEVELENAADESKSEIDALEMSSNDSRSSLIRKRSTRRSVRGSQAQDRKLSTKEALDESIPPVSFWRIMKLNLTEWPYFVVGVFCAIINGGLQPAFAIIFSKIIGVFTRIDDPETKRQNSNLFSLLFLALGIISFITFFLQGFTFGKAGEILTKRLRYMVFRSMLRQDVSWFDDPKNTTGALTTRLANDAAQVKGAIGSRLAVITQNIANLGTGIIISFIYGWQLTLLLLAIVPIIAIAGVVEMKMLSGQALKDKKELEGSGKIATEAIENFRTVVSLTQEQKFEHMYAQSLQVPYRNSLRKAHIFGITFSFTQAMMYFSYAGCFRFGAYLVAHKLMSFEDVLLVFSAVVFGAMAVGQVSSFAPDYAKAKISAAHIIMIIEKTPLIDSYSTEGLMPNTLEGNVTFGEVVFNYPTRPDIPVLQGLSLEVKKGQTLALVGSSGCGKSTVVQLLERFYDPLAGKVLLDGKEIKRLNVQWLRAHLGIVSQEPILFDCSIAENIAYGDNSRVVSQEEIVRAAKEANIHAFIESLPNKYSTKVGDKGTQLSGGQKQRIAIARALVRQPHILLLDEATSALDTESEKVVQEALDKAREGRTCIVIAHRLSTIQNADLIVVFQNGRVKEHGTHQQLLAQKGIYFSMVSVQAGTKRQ
# Chain of Apelin receptor (P35414 whole entry, the tested form may be a part): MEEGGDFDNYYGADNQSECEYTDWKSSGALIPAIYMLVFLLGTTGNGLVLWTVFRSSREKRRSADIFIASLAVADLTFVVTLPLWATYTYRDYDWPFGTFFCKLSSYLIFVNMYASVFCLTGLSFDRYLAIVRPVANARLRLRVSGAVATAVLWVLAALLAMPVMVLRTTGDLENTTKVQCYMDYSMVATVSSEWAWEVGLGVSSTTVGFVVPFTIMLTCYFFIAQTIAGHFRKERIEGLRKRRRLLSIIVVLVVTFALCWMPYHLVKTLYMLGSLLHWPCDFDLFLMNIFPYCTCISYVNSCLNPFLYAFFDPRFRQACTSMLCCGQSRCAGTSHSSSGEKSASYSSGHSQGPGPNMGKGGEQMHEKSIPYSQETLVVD
# Chain of Beta-lactamase (Pseudomonas aeruginosa, UniProt Q79MP6) (Q79MP6 whole entry): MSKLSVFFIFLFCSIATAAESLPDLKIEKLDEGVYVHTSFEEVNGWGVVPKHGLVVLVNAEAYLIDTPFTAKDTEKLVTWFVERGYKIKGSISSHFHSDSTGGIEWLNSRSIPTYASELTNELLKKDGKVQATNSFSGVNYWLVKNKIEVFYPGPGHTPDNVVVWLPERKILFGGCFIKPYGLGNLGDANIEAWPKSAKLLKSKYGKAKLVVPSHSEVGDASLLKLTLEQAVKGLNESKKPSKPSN
# Chain of Broad substrate specificity ATP-binding cassette transporter ABCG2 (Q9UNQ0 whole entry): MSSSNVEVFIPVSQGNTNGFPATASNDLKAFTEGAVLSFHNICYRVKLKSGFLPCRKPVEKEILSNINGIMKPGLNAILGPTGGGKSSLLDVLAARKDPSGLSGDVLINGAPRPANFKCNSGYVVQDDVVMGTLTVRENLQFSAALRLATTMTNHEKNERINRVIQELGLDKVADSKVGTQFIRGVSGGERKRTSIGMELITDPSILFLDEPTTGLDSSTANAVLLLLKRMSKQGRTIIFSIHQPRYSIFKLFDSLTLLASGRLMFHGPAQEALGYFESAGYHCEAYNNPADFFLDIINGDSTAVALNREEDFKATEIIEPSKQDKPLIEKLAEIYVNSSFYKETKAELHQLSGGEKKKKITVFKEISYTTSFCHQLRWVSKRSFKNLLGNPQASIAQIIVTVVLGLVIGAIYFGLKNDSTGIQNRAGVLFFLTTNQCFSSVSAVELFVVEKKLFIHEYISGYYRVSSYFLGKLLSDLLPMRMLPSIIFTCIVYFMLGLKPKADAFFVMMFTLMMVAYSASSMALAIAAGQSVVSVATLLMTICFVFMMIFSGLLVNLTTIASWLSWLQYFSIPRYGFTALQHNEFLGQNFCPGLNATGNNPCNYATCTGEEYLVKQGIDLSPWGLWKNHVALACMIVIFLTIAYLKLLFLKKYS
# Chain of Nucleotide-binding oligomerization domain-containing protein 2 (Q9HC29 whole entry, the tested form may be a part): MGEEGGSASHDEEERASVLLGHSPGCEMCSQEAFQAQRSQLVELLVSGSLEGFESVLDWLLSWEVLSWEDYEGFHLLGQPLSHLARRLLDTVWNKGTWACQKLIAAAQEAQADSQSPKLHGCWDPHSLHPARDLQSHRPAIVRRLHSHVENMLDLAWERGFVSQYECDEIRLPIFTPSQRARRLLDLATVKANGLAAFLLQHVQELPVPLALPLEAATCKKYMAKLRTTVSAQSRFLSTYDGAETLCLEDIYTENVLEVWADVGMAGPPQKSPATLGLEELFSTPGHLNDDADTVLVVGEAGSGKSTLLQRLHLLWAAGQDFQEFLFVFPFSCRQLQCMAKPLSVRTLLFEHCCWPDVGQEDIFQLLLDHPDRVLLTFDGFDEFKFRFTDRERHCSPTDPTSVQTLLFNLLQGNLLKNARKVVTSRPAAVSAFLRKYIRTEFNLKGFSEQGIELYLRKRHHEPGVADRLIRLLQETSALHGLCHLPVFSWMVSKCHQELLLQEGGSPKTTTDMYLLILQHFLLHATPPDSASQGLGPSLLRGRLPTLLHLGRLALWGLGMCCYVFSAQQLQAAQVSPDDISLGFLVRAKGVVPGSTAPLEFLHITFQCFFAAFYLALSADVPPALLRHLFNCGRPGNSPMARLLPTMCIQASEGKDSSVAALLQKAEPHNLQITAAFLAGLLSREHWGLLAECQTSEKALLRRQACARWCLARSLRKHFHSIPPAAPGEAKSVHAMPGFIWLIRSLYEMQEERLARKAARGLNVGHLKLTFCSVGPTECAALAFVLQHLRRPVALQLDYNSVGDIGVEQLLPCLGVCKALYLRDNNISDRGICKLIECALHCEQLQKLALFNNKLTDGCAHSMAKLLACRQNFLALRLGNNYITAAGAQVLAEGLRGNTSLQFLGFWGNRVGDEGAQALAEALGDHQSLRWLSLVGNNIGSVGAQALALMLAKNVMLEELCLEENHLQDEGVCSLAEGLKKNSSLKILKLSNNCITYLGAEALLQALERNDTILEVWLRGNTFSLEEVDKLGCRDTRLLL
# Chain of Beta-lactamase (Salmonella choleraesuis (strain SC-B67), UniProt Q5J463) (Q5J463 whole entry): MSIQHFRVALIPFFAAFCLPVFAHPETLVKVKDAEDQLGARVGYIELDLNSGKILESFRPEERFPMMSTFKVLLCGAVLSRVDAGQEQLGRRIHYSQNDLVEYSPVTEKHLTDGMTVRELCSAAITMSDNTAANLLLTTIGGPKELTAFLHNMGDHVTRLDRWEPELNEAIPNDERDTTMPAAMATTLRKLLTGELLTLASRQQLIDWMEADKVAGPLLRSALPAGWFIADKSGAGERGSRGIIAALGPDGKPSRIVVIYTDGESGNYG
# Chain of UDP-galactopyranose mutase (P9WIQ1 whole entry): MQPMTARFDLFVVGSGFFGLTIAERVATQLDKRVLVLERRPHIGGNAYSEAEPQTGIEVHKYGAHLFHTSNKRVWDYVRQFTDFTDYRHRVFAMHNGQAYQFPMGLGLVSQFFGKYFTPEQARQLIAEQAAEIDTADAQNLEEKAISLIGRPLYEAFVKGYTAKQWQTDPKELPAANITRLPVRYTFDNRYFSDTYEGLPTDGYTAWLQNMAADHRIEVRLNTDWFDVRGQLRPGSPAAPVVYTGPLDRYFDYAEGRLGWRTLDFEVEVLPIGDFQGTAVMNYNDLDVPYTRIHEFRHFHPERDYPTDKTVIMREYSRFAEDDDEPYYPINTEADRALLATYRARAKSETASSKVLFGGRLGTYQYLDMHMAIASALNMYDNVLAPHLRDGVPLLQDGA
smiles,measurement,setting,value
Cc1ccccc1CS(=O)(=O)c1ncc(Cl)c(C(=O)Nc2ccc(F)cc2)n1,EC50,HEK293 [1],8.92 µM (active)
same,EC50,[2],> 20 µM (inactive)
same,IC50,HEK293 [3],10 µM (inactive)
same,IC50,HEK293 [4],> 20 µM (inactive)
same,AC50,[5],2.2 µM (active)
same,IC50,Beta-galactosidase,> 66.6 µM (inactive)
same,IC50,CHO,4.01 µM (active)
same,AC50,[6],1.22 µM (active)
same,AC50,[7],2.41 µM (active)
same,IC50,Apelin receptor,19.7 µM (active)
same,EC50,Protein RecA,2.79 µM (active)
same,IC50,Beta Lactamase [8],6.25 µM (active)
same,AC50,[9],3 µM (active)
same,AC50,[10],40.4 µM (active)
same,AC50,[11],11.5 µM (active)
same,EC50,[12],30.5 µM (active)
CCOc1ccc(NC(=O)c2cccc3c2C(=O)N(CCOC)C3)cc1,EC50,[13],8.31 µM (inactive)
same,EC50,[14],1.6 µM (active)
CN1C(=O)/C(=N\CCc2ccccc2)c2c3ccccc3c(O)c3cccc1c23,IC50,Beta Lactamase [15],9.24 µM (active)
same,EC50,[16],11.3 µM (active)
same,EC50,Streptokinase A,> 150 µM (not active)
same,IC50,Beta-lactamase [17],11.5 µM (inactive)
same,IC50,Beta-lactamase [18],2.19 µM (active)
same,EC50,Streptococcus,> 150 µM (not active)
same,EC50,[19],1.6 µM (active)
same,AC50,ORF 73,0.902 µM (active)
same,IC50,CHO,> 49.8 µM (inactive)
same,AC50,[20],0.73 µM (active)
same,IC50,Beta Lactamase [8],5.98 µM (active)
CCc1ccc(CN2CCC(Oc3ccc(C(=O)N4CCCCC4)cc3)CC2)cc1,EC50,[21],1.83 µM (active)
same,EC50,[22],1.75 µM (active)

# — ChEMBL document CHEMBL1201862, “PubChem BioAssay data set” (2004)
